Results: publication PMC12337661, “PIEZO1 mechanical insensitivity in generalized lymphatic dysplasia with the potential for pharmacological rescue” (iScience, 2025)
≈ marks a conversion by molar mass, not a printed value.

What was measured:
[1] = target: T1, E829V hPIEZO1 (Homo sapiens, UniProt Q92508, E829V); test: Intracellular Ca2+ measurement (fura-2), T-REx-293 cells transiently transfected; assay type: cell-based; details: 1 μM Y1, versus WT
T1 construct: expressed in transfected cells; host or cells: T-REx-293 (modified HEK293), transient
Procedure: (§1) HEK 293 cell line was transiently transfected at 90% confluence using Lipofectamine 2000 (Invitrogen) in OptiMEM (Gibco). Briefly: 500 ng endotoxin-free DNA per 100μL OptiMEM was prepared alongside 3μL Lipofectamine 2000 per 100μL OptiMEM (Gibco). Both were incubated for 5 min and then mixed, and then incubated at room temperature (21°C–24°C) for 20–30 min. Finally, the transfection mix was gently added dropwise to the cells and the cells were placed in a humidified incubator at 37°C supplied with 5% CO2 for 5 h. Medium was replaced afterward, and cells were used for experimentation 48 h after transfection.
(§2) For intracellular Ca^2+ assays, cells were plated at 80–90% confluence in 96-well plates 24 h prior to recordings (6–8 × 10^4 cells per well). […] Cells were washed with SBS and incubated at room temperature for 20 min prior to recordings. Equal volumes of 2x concentrated compounds were injected to test for acute channel activation. Pre-incubation with compounds occurred during the 20 min prior to recordings. To expose cell membranes to hypo-osmolality, an equal volume of hypotonic SBS (containing only 35 mM NaCl) was injected onto the cells. Measurements were made on a fluorescence plate reader (Flexstation III, Molecular Devices) at room temperature (21 ± 2°C). Fura-2 was excited at 340 nm and 380 nm and emitted light collected at 510 nm, with measurements shown as the change in fluorescence (F) ratio (ΔF340/380).
(§3) KC41 (Dooku1) was prepared as described.[28] All purchased chemicals and solvents were used without further purification unless otherwise stated. All compounds were at least 95% pure by 1H NMR. 1H Nuclear Magnetic Resonance spectra were recorded at 500 MHz using a Bruker DRX 500 instrument or at 400 MHz using a Bruker DPX 400. 1H spectra are referenced based on the residual proton in the solvent (e.g., the CHCl3, 0.01% in 99.99% CDCl3). Coupling constants (J) are reported to the nearest 0.1 Hz. 13C NMR spectra were recorded at 125 MHz on 500 MHz spectrometers or at 100 MHz on 400 MHz spectrometers. LC-MS was performed on a Bruker Daltronics running a gradient of increasing acetonitrile (5–95%) in H2O both containing 0.1% formic acid at 1 mL.min^−1, on a short path C18 reverse phase column, detecting compounds with both a diode array detector and a Bruker mass spectrum analyser. HRMS was performed on a Bruker Daltonics micrOTOF using positive electrospray ionisation (ES+). Automated column chromatograph was carried out using a Biotage Isolera Four, using either Sfär Silica D or KP-Silica cartridges. HPLC was performed on an Agilent 1290 Infinity Series equipped with a UV detector and Hyperprep C18 reverse phase column. Key to NMR abbreviations: s (singlet), br s (broad singlet) d (doublet), dd (doublet of doublets), ddd (doublet of doublets of doublets), t (triplet), dt (doublet of triples), q (quartet), m (multiplet), ap. t (apparent triplet). For experiments, Yoda1 and its analogues were prepared as 10 mM stock solutions in 100% dimethyl sulfoxide (DMSO) before serial dilution in DMSO and final dilution in aqueous solution. Cells were exposed to 0.1% DMSO for all concentrations of the compounds from 0 to 10 μM.

[2] = target: T2, WT hPIEZO1 (Homo sapiens, UniProt Q92508); test: as above; assay type: cell-based; details: 1 μM
T2 construct: expressed in transfected cells; host or cells: T-REx-293 (modified HEK293), transient
Procedure: as §1, §2, §3

[3] = test system: T-REx-293 cells, empty vector (vector control); test: Intracellular Ca2+ measurement (fura-2), T-REx-293 cells transiently transfected with empty vector; assay type: cell-based; details: 1 μM
Procedure: as §1, §2, §3

[4] = test system: mice; details: cited from earlier work
[5] = Aqueous (kinetic) solubility; assay type: physicochemical; details: pH 7.4, aqueous buffer, kinetic from dmso stock; physiological pH in PBS
Procedure: Aqueous solubility, mouse microsomal stability and mouse plasma protein binding assays were performed by Malvern Panalytical (UK) as previously described.[29]

T2 sequence (Q92508 whole entry): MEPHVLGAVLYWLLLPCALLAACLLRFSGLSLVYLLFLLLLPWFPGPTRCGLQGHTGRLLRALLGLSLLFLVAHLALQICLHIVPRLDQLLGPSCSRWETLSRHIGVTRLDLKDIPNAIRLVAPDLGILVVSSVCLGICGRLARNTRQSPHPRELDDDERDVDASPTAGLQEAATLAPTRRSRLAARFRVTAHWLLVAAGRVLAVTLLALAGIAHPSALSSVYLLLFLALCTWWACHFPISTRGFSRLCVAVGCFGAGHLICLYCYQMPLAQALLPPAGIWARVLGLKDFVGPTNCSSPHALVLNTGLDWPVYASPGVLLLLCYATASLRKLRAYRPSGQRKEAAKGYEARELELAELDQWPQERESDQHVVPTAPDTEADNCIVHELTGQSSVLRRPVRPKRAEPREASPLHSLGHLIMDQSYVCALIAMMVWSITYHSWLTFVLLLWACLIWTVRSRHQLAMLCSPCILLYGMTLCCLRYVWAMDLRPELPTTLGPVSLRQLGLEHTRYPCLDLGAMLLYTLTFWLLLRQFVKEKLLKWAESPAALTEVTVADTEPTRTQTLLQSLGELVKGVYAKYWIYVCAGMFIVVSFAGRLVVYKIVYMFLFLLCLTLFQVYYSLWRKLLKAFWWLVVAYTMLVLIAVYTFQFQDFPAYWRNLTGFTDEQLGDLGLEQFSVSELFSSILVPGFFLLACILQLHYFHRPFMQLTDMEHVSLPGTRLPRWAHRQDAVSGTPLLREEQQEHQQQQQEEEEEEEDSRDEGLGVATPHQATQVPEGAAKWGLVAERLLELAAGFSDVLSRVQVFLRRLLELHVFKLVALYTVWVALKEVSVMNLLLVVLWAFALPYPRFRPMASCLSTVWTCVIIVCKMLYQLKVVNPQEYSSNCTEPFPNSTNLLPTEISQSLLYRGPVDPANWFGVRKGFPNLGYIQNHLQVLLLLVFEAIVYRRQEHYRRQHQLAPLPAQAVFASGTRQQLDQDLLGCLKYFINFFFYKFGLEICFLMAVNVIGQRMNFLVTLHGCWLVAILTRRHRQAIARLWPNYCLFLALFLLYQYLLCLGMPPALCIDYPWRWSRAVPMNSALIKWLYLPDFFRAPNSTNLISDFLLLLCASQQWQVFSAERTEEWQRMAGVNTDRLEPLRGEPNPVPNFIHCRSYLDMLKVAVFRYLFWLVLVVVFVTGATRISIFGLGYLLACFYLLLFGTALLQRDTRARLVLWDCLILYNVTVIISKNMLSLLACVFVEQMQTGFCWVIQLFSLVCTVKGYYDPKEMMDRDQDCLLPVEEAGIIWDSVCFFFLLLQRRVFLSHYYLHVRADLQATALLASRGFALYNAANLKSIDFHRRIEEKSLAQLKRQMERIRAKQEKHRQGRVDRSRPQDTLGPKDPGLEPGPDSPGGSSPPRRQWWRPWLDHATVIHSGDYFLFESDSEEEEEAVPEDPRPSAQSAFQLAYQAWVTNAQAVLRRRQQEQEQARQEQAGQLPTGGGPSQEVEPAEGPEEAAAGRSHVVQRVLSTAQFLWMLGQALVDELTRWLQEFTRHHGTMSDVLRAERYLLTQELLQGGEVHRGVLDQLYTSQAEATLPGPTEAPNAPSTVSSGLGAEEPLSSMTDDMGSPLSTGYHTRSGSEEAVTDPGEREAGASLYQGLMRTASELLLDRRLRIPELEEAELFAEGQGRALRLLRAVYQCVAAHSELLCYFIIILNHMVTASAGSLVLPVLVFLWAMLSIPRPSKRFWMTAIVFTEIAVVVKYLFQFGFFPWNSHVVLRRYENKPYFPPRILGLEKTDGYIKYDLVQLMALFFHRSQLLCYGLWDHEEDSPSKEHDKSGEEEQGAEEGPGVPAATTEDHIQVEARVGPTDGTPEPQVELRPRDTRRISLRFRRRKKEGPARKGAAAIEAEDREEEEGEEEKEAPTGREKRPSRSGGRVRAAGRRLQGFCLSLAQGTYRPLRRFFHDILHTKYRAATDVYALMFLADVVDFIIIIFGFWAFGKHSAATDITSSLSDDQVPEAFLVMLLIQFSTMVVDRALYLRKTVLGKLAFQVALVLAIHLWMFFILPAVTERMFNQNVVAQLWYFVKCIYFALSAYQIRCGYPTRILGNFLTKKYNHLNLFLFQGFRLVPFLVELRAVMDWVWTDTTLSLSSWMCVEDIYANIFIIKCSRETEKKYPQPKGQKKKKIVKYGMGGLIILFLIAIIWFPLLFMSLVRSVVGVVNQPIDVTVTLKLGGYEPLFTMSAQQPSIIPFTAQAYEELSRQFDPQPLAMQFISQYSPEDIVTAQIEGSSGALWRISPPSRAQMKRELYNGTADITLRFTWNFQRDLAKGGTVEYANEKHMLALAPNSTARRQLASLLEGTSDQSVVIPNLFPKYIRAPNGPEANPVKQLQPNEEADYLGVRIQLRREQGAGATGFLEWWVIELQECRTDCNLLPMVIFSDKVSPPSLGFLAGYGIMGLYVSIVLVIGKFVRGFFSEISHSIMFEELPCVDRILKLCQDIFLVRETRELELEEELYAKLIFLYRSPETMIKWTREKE
T1 sequence (Q92508 whole entry E829V): as the sequence (Q92508 whole entry) above, with E829V counted along it

## Clc1cccc(Cl)c1CSc1nnc(-c2cnccn2)s1 [Yoda1]
[1]
  Effect on hPIEZO1 channel function: reduced 1 μM Y1 effect
[2]; time 0 s
  fluorescence (ΔFratio): -0.01302
[2]; time 5 s
  fluorescence (ΔFratio): -0.00371
[2]; time 10 s
  fluorescence (ΔFratio): 0.00261
[2]; time 15 s
  fluorescence (ΔFratio): 0.01821
[2]; time 20 s
  fluorescence (ΔFratio): -9.97E-05
[2]; time 25 s
  fluorescence (ΔFratio): -0.004
[2]; time 30 s
  fluorescence (ΔFratio): -0.05053
[2]; time 35 s
  fluorescence (ΔFratio): 0.02247
[2]; time 40 s
  fluorescence (ΔFratio): 0.1718
[2]; time 45 s
  fluorescence (ΔFratio): 0.1972
[2]; time 50 s
  fluorescence (ΔFratio): 0.2136
[2]; time 55 s
  fluorescence (ΔFratio): 0.2004
[2]; time 60 s
  fluorescence (ΔFratio): 0.1986
[2]; time 65 s
  fluorescence (ΔFratio): 0.1996
[2]; time 70 s
  fluorescence (ΔFratio): 0.1871
[2]; time 75 s
  fluorescence (ΔFratio): 0.1803
[2]; time 80 s
  fluorescence (ΔFratio): 0.1839
[2]; time 85 s
  fluorescence (ΔFratio): 0.1791
[2]; time 90 s
  fluorescence (ΔFratio): 0.1817
[2]; time 95 s
  fluorescence (ΔFratio): 0.1659
[2]; time 100 s
  fluorescence (ΔFratio): 0.1565
[2]; time 105 s
  fluorescence (ΔFratio): 0.1608
[2]; time 110 s
  fluorescence (ΔFratio): 0.1552
[2]; time 115 s
  fluorescence (ΔFratio): 0.1355
[2]; time 120 s
  fluorescence (ΔFratio): 0.1385
[2]; time 125 s
  fluorescence (ΔFratio): 0.172
[3]; time 0 s
  fluorescence (ΔFratio): 0.00237
[3]; time 5 s
  fluorescence (ΔFratio): -0.00988
[3]; time 10 s
  fluorescence (ΔFratio): 0.01607
[3]; time 15 s
  fluorescence (ΔFratio): 0.00395
[3]; time 20 s
  fluorescence (ΔFratio): -3.91E-04
[3]; time 25 s
  fluorescence (ΔFratio): -0.01211
[3]; time 30 s
  fluorescence (ΔFratio): -0.08353
[3]; time 35 s
  fluorescence (ΔFratio): 0.00717
[3]; time 40 s
  fluorescence (ΔFratio): 0.03324
[3]; time 45 s
  fluorescence (ΔFratio): 0.05289
[3]; time 50 s
  fluorescence (ΔFratio): 0.03768
[3]; time 55 s
  fluorescence (ΔFratio): 0.03322
[3]; time 60 s
  fluorescence (ΔFratio): 0.03103
[3]; time 65 s
  fluorescence (ΔFratio): 0.02272
[3]; time 70 s
  fluorescence (ΔFratio): 0.00255
[3]; time 75 s
  fluorescence (ΔFratio): 0.00791
[3]; time 80 s
  fluorescence (ΔFratio): -0.00287
[3]; time 85 s
  fluorescence (ΔFratio): 0.01077
[3]; time 90 s
  fluorescence (ΔFratio): -0.01792
[3]; time 95 s
  fluorescence (ΔFratio): -0.01119
[3]; time 100 s
  fluorescence (ΔFratio): 0.01819
[3]; time 105 s
  fluorescence (ΔFratio): 8.16E-04
[3]; time 110 s
  fluorescence (ΔFratio): 0.00558
[3]; time 115 s
  fluorescence (ΔFratio): 0.00369
[3]; time 120 s
  fluorescence (ΔFratio): 7.66E-04
[3]; time 125 s
  fluorescence (ΔFratio): 0.00667
[4]; WT mice
  lymphatic valve formation: accelerated lymphatic valve formation
[4]; mice injected
  adverse effects of injection: mostly not been adversely affected
[4]; mice
  effect on edemas: reduce peripheral and central edemas
  meningeal lymphatic network function: restored meningeal lymphatic network function
  postsurgical lymphedema: suppressed postsurgical lymphedema
[4]; mouse models of Down syndrome
  cerebrospinal fluid accumulation and ventricular enlargement: decreased pathological cerebrospinal fluid accumulation and ventricular enlargement

## O=C(O)c1ccc(-c2cnc(SCc3c(Cl)cccc3Cl)s2)cc1 [Yoda2b, 4-(2-([(2,6-Dichlorophenyl)methyl]sulfanyl)-1,3-thiazol-5-yl)benzoic acid]
[5]
  solubility kinetic: 6.1 µM (≈ 2.42 µg/mL)
